“Also recorded” adds a separate entry of the source. Peptide text beside a SMILES is read from it. * marks the point of attachment. Cbz = O=C(OCc1ccccc1)*; CH2F = FC*
Legend:
Assay type in all cases: in vivo
[1] = test system: IFN-γ-induced apoptosis; assay: TUNEL evaluation of IFN-γ-induced lung cell apoptosis in transgenic mice; conditions: transgene (+) mice on dox; for effect on IFN-γ-induced apoptosis (in words): treated vs vehicle control, 14150 10 mg/kg/day by gavage, CA074 10 mg/Kg/day I.P., leupeptin 15 mg/kg I.P.
Source text: (§1) CC10-rtTA-IFN-γ mice that had been generated in our laboratory and bred for at least 10 generations onto a Balb/c background were used in these studies. These are dual transgene positive animals in which the reverse tetracycline transactivator (rtTA) drives the expression of the murine IFN-γ gene in a lung-specific and externally regulatable fashion. The transgene in these mice is activated by adding doxycycline (dox) to the animal's drinking water. These mice were maintained as dual transgene (+) heterozygotes (refered to as transgene (+) hereafter).
(§2) CC10-rtTA-IFN-γ mice and littermate controls were maintained on normal water until they were 4-6 weeks old.
End labeling of exposed 3′-OH ends of DNA fragments in paraffin embedded tissue was undertaken with the TUNEL in situ cell death detection kit AP (Roche Diagnostics, CA, USA) using the instructions provided by the manufacturer. After staining, 20 fields of alveoli were randomly chosen and 2000 nuclei were counted. The labeled cells were expressed as percentage of total nuclei.

[2] = test system: CC10-rtTA-IFN-γ mice; assay: IFN-γ-induced emphysema (lung volume, chord length, alveolar histology, compliance) in transgenic mice; conditions: transgene (+) mice on dox, treated vs vehicle control
Source text: as §1, §2
(§3) Animals were sacrificed via cervical dislocation, a median stemotomy was performed, and right heart perfusion was accomplished with calcium- and magnesium-free PBS to clear the pulmonary intravascular space. The lungs were then fixed to pressure (25 cm) with neutral buffered 10% formalin, fixed overnight in 10% formalin, embedded in paraffm, sectioned at 5 μm and stained. Hematoxylin and eosin (H&E) stains were performed in the Research Histology Laboratory of the Department of Pathology at Yale University School of Medicine.
In brief, the trachea was cannulated, the lungs were degassed and the lungs and heart were removed en bloc and inflated with PBS at 25 cm of pressure. The size of the lung was evaluated via volume displacement. Compliance was calculated as the change in volume divided by the change in pressure.

[3] = test system: CC10-rtTA-IFN-γ mice; assay: IFN-γ-induced BAL cell recovery and tissue inflammation; conditions: transgene (+) mice on dox for 2 weeks
Method: Mice were euthanized, the trachea was isolated by blunt dissection, and tubing was secured in the airway. Two volumes of 1 mL of PBS with 0.1% BSA were then instilled and gently aspirated and pooled. Each BAL fluid sample was centriged, and the supernatants were stored in −70° C. until used. The levels of IFN-γ were determined using a commercial ELISA (R&D Systems Inc., Minneapolis, Minn., USA) as per the manufacturer's instructions.
as §3

[4] = test system: cathepsins B, S, and H and MMPs-2, 9, 12 and 14; assay: Lung mRNA encoding cathepsins and MMPs (RT-PCR, real-time RT-PCR); conditions: transgene (+) mice on dox for 2 weeks

Structure (SMILES)	effect on IFN-γ-induced apoptosis (in words) [1]	effect on IFN-γ-induced emphysema (lung volume, chord length, histology, compliance; in words) [2]	decrease of the levels of IFN-γ-induced apoptosis ([1]; Z-VAD-fmk 3 μg/kg/day I.P. vs vehicle control) [%]	IFN-γ-induced BAL total cell, neutrophil, lymphocyte and macrophage alterations and tissue inflammation [3]	IFN-γ-induced increase in mRNA encoding cathepsin B, cathepsin S and MMPs-2 and -14 [4]	levels of mRNA encoding cathepsin H and MMPs-9 and -12 [4]	MMP-9 mRNA induction by IFN-γ [4]
CCCNC(=O)[C@H]1O[C@@H]1C(=O)N[C@H](C(=O)N1CCC[C@H]1C(=O)O)[C@@H](C)CC (relative stereo) [CA074, N-(L-3-trans-propylcarbamoyl-oxirane-2-carbonyl)-L-isoleucyl-L-proline]	significant decreases	significant decreases	–	–	–	–	–
COC(=O)C[C@H](NC(=O)[C@H](C)NC(=O)[C@@H](NC(=O)OCc1ccccc1)C(C)C)C(=O)CF [Z-VAD-fmk] (Cbz-Val-Ala-Asp(OMe)-CH2F)	–	decreased the emphysema generating effects of IFN-γ; also recorded: only partially abrogated	≥ 85	markedly ameliorated	markedly ameliorated	not similarly altered	–
CC[C@H](NC(=O)[C@H](CS(=O)(=O)CC(C)C)NC(=O)N1CCOCC1)C(=O)c1nc2ccccc2o1 [compound 14150]	significant decreases; also recorded: significantly inhibited	significant decreases; also recorded: significantly inhibited	–	–	–	–	–
CC(=O)N[C@@H](CC(C)C)C(=O)N[C@@H](CC(C)C)C(=O)N[C@H](C=O)CCCNC(=N)N [leupeptin]	–	–	–	–	decreased	–	leupeptin-dependent
